In patent publication US20260138976A1 (Hoffmann-La Roche Inc., priority 2022, published 2026):

Assays:
[1] = biological target: T1, DGKζ (hDGKzeta(1-928)-N-His) (Homo sapiens, UniProt Q13574); test: In vitro DGK inhibition assay, DGKzeta ADP Glo (in house); type: biochemical; details: 2 nM DGKζ, 50 μM ATP, 125 uM DLG in liposomes, 1 hour reaction
T1 construct: hDGKzeta(1-928)-N-His; His (N); made in house; host or cells: Sf21 insect cells (baculovirus)
How it was run: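 ADP-Glo luminescence measured ADP formed over 1 h by Sf21-expressed full-length human enzymes: DGKα at 4 nM with 25 µM ATP, DGKζ at 2 nM with 50 µM ATP, both on 125 µM DLG in PS/PC liposomes. Dose–response used 11 threefold dilutions at 2% final DMSO.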

[2] = test system: primary human T-cells; test: IL2 secretion measurements (24 h, CD3-stimulated T-cells, PBS counter screen); type: cell-based; details: for Emax IL2 (% activation): CD3 condition, normalised to DMSO (neutral) and 20 μM reference compound A1 = 100%; for EC50: Homo sapiens, T-cell, CD3-stimulated primary human T-cells, IL2 secretion, fitted sigmoidal curve, read-out: Tcell IL2 CD3 EC50
How it was run: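 IL-2 secretion was measured by ProQuantum or ELISA after 24 h culture of expanded human T-cells with compound, on CD3-antibody-coated plates or PBS counter-screen plates. Dosing used 5–6 points from a 20 or 10 μM final top at 3.333-fold steps in 0.2% DMSO. EC50/Emax were scaled between DMSO and 20 μM reference A1.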

T1 sequence (Q13574 whole entry): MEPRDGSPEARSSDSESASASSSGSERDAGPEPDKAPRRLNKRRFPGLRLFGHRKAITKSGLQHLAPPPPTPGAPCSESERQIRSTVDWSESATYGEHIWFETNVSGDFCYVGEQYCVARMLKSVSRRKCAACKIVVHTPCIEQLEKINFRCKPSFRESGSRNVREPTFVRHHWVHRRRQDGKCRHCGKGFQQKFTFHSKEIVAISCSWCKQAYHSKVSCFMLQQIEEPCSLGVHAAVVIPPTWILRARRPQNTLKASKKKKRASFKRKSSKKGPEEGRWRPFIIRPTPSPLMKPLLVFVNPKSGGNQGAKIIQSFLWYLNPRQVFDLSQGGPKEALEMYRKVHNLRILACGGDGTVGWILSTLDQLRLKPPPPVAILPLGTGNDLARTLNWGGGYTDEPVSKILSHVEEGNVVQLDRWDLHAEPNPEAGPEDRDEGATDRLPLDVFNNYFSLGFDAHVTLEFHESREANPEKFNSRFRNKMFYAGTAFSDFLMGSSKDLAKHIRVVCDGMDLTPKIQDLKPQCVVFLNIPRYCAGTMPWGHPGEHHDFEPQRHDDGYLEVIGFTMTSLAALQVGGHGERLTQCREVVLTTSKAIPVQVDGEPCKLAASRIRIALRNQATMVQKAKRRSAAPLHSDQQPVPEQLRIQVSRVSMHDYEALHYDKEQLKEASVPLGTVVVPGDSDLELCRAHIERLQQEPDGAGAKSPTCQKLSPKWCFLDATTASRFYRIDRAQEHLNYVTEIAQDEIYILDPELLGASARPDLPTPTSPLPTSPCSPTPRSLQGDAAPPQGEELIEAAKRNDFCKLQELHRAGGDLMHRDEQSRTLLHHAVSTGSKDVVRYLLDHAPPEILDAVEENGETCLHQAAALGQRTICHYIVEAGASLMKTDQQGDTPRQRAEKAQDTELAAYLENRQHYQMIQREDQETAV

Row | SMILES | IC50 [1] [nM] | Emax IL2 (% activation) [2] [% activation] | EC50 [2] [nM]
1 | CC1(Nc2nnc(-c3ccc4c(c3)N(Cc3ccc(-c5noc(C(F)(F)F)n5)cc3)C(=O)[C@@H](N)CS4(=O)=O)o2)CC(F)(F)C1 [Example 72, (3R)-3-amino-7-[5-[(3,3-difluoro-1-methyl-cyclobutyl)amino]-1,3,4-oxadiazol-2-yl]-1,1-dioxo-5-[[4-[5-(trifluoromethyl)-1,2,4-oxadiazol-3-yl]phenyl]methyl]-2,3-dihydro-1λ^6,5-benzothiazepin-4-one] | 20900 | 238 | 3280
2 | N[C@H]1CS(=O)(=O)c2ccc(-c3nnc(N4CCOC(C(F)(F)F)C4)o3)cc2N(Cc2ccc(-c3ccc(C(F)(F)F)cc3)cc2)C1=O (stereo partly drawn) [Example 73, (3R)-3-amino-1,1-dioxo-7-[5-[2-(trifluoromethyl)morpholin-4-yl]-1,3,4-oxadiazol-2-yl]-5-[[4-[4-(trifluoromethyl)phenyl]phenyl]methyl]-2,3-dihydro-1λ^6,5-benzothiazepin-4-one] | 13600 | 116 | 2530
3 | N[C@H]1CS(=O)(=O)c2ccc(-c3nnc(N4CCOC(C(F)(F)F)C4)o3)cc2N(Cc2ccc(-c3ccc(C(F)(F)F)cn3)cc2)C1=O (stereo partly drawn) [Example 75, (3R)-3-amino-1,1-dioxo-7-[5-[2-(trifluoromethyl)morpholin-4-yl]-1,3,4-oxadiazol-2-yl]-5-[[4-[5-(trifluoromethyl)-2-pyridyl]phenyl]methyl]-2,3-dihydro-1λ^6,5-benzothiazepin-4-one] | 2680 | 140 | 2550
4 | N[C@H]1CS(=O)(=O)c2ccc(-c3nnc(N4CCOC(F)(F)C4)o3)cc2N(Cc2ccc(-c3noc(C(F)(F)F)n3)cc2)C1=O [Example 78, (3R)-3-amino-7-[5-(2,2-difluoromorpholin-4-yl)-1,3,4-oxadiazol-2-yl]-1,1-dioxo-5-[[4-[5-(trifluoromethyl)-1,2,4-oxadiazol-3-yl]phenyl]methyl]-2,3-dihydro-1λ^6,5-benzothiazepin-4-one] | 2530 | 216 | 2340
5 | COc1ccc(-c2ccc(CN3C(=O)[C@@H](N)CS(=O)(=O)c4ccc(-c5nnc(N(C)CC(F)(F)F)o5)cc43)cc2)cc1 [Example 81, (3R)-3-amino-5-[[4-(4-methoxyphenyl)phenyl]methyl]-7-[5-[methyl(2,2,2-trifluoroethyl)amino]-1,3,4-oxadiazol-2-yl]-1,1-dioxo-2,3-dihydro-1λ^6,5-benzothiazepin-4-one] | 2450 | 66 | 523
6 | N[C@H]1CS(=O)(=O)c2ccc(-c3noc(C4(N)COC4)n3)cc2N(Cc2ccc(-c3noc(C(F)(F)F)n3)cc2)C1=O [Example 84, (3R)-3-amino-7-[5-(3-aminooxetan-3-yl)-1,2,4-oxadiazol-3-yl]-1,1-dioxo-5-[[4-[5-(trifluoromethyl)-1,2,4-oxadiazol-3-yl]phenyl]methyl]-2,3-dihydro-1lambda6,5-benzothiazepin-4-one] | 3070 | 33 | > 10000
7 | N[C@H]1CS(=O)(=O)c2ccc(-c3noc(-c4cccnc4C(F)(F)F)n3)cc2N(Cc2ccc(-c3noc(C4CC4)n3)cc2)C1=O [Example 87, (3R)-3-amino-5-[[4-(5-cyclopropyl-1,2,4-oxadiazol-3-yl)phenyl]methyl]-1,1-dioxo-7-[5-[2-(trifluoromethyl)-3-pyridyl]-1,2,4-oxadiazol-3-yl]-2,3-dihydro-1λ^6,5-benzothiazepin-4-one] | 2310 | 16 | > 10000
8 | CC(C)(C)c1nnc(-c2ccc3c(c2)N(Cc2ccc(-n4cnc(C(F)(F)F)n4)cc2)C(=O)[C@@H](N)CS3(=O)=O)o1 [Example 91, (3R)-3-amino-7-(5-tert-butyl-1,3,4-oxadiazol-2-yl)-1,1-dioxo-5-[[4-[3-(trifluoromethyl)-1,2,4-triazol-1-yl]phenyl]methyl]-2,3-dihydro-126,5-benzothiazepin-4-one] | 3010 | 113 | 3600

Molecules with a lower IC50 [1], results first:

Row | IC50 [1] [nM] | SMILES | Emax IL2 (% activation) [2] [% activation] | EC50 [2] [nM]
9 | 2100 | N[C@H]1CS(=O)(=O)c2ccc(-c3noc(-c4cccnc4Cl)n3)cc2N(Cc2ccc(-c3noc(C4CC4)n3)cc2)C1=O [Example 85, (3R)-3-amino-7-[5-(2-chloro-3-pyridyl)-1,2,4-oxadiazol-3-yl]-5-[[4-(5-cyclopropyl-1,2,4-oxadiazol-3-yl)phenyl]methyl]-1,1-dioxo-2,3-dihydro-1λ^6,5-benzothiazepin-4-one] | 4 | > 10000
10 | 2080 | N[C@H]1CS(=O)(=O)c2ccc(-c3nnc(C4(C5CC5)CCCO4)o3)cc2N(Cc2ccc(-c3nnc(C(F)(F)F)o3)cc2)C1=O (stereo partly drawn) [Example 97, (3R)-3-amino-7-[5-(2-cyclopropyltetra-hydrofuran-2-yl)-1,3,4-oxadiazol-2-yl]-1,1-dioxo-5-[[4-[5-(trifluoromethyl)-1,3,4-oxadiazol-2-yl]phenyl]methyl]-2,3-dihydro-1λ6,5-benzothiazepin-4-one] | 115 | 6350
11 | 1530 | N[C@H]1CS(=O)(=O)c2ccc(-c3nnc(N4CCOC5(CC5)C4)o3)cc2N(Cc2ccc(-c3noc(C(F)(F)F)n3)cc2)C1=O [Example 77] | 170 | 3450
12 | 1080 | COc1ccc(-c2ccc(CN3C(=O)[C@@H](N)CS(=O)(=O)c4ccc(-c5nnc(N6CCC(F)(F)C6)o5)cc43)cc2)cc1 [Example 76, (3R)-3-amino-7-[5-(3,3-difluoropyrrolidin-1-yl)-1,3,4-oxadiazol-2-yl]-5-[[4-(4-methoxyphenyl)phenyl]methyl]-1,1-dioxo-2,3-dihydro-1λ^6,5-benzothiazepin-4-one] | 297 | 2640
13 | 1030 | CC(c1nc(-c2ccc(CN3C(=O)[C@@H](N)CS(=O)(=O)c4ccc(-c5nnc(C6(N)CCCCC6)o5)cc43)cc2)no1)C(F)(F)F (stereo partly drawn) [Example 98, (3R)-3-amino-7-[5-(1-aminocyclohexyl)-1,3,4-oxadiazol-2-yl]-1,1-dioxo-5-[[4-[5-(2,2,2-trifluoro-1-methyl-ethyl)-1,2,4-oxadiazol-3-yl]phenyl]methyl]-2,3-dihydro-1λ^6,5-benzothiazepin-4-one] | 97 | 1370
14 | 895 | N[C@H]1CS(=O)(=O)c2ccc(-c3nnc(N4CCC(F)(F)CC4)o3)cc2N(Cc2ccc(-c3nnc(C(F)(F)F)o3)cc2)C1=O [Example 71, (3R)-3-amino-7-[5-(4,4-difluoro-1-piperidyl)-1,3,4-oxadiazol-2-yl]-1,1-dioxo-5-[[4-[5-(trifluoromethyl)-1,3,4-oxadiazol-2-yl]phenyl]methyl]-2,3-dihydro-1λ^6,5-benzothiazepin-4-one] | 111 | 3260
15 | 880 | COc1ccc(-c2ccc(CN3C(=O)[C@@H](N)CS(=O)(=O)c4ccc(-c5nnc(N6CCOC(F)(F)C6)o5)cc43)cc2)cc1 [Example 79, (3R)-3-amino-7-[5-(2,2-difluoromorpholin-4-yl)-1,3,4-oxadiazol-2-yl]-5-[[4-(4-methoxyphenyl)phenyl]methyl]-1,1-dioxo-2,3-dihydro-1λ^6,5-benzothiazepin-4-one] | 236 | 2450
16 | 770 | N[C@H]1CS(=O)(=O)c2ccc(-c3nnc(N4CCOC(C(F)(F)F)C4)o3)cc2N(Cc2ccc(-c3noc(C(F)(F)F)n3)cc2)C1=O (stereo partly drawn) [Example 74, (3R)-3-amino-1,1-dioxo-7-[5-[2-(trifluoromethyl)morpholin-4-yl]-1,3,4-oxadiazol-2-yl]-5-[[4-[5-(trifluoromethyl)-1,2,4-oxadiazol-3-yl]phenyl]methyl]-2,3-dihydro-1λ^6,5-benzothiazepin-4-one] | 206 | 1460
17 | 642 | Cc1nc(F)ccc1-c1nc(-c2ccc3c(c2)N(Cc2ccc(-c4noc(C5CC5)n4)cc2)C(=O)[C@@H](N)CS3(=O)=O)no1 [Example 86, (3R)-3-amino-5-[[4-(5-cyclopropyl-1,2,4-oxadiazol-3-yl)phenyl]methyl]-7-[5-(6-fluoro-2-methyl-3-pyridyl)-1,2,4-oxadiazol-3-yl]-1,1-dioxo-2,3-dihydro-1λ^6,5-benzothiazepin-4-one] | 101 | 4160
18 | 613 | CC(C)(C)c1nnc(-c2ccc3c(c2)N(Cc2ccc(-c4nc(C(F)(F)F)co4)cc2)C(=O)[C@@H](N)CS3(=O)=O)o1 [Example 89, (3R)-3-amino-7-(5-tert-butyl-1,3,4-oxadiazol-2-yl)-1,1-dioxo-5-[[4-[4-(trifluoromethyl)oxazol-2-yl]phenyl]methyl]-2,3-dihydro-1λ^6,5-benzothiazepin-4-one] | 182 | 377
